Assay results published in ChEMBL document CHEMBL5053549, “Discovery of Potent and Novel Dual PARP/BRD4 Inhibitors for Efficient Treatment of Pancreatic Cancer” (J Med Chem, 2021).
Calls of active or inactive are those of the source. No cut-off for these calls is given here.

What was measured:
SW1990 [1] = assay: Induction of autophagy in human SW1990 cells assessed as reduction in p62 expression at 4 uM incubated for 4 days by immunofluorescence assay; format: functional, cell-based; conditions: time 4.0 day
CFPAC-1 = assay: Antiproliferative activity against human CFPAC-1 cells assessed as reduction in cell viability after 4 days by MTT assay; format: functional, cell-based; conditions: CFPAC-1, 96 h, read-out: IC50
CAPAN-1 = assay: Antiproliferative activity against human CAPAN-1 cells assessed as reduction in cell viability after 4 days by MTT assay; format: functional, cell-based; conditions: CAPAN-1, 96 h
SW1990 [2] = assay: Antiproliferative activity against human SW1990 cells assessed as reduction in cell viability after 4 days by MTT assay; format: functional, cell-based; conditions: SW1990, 96 h
MDA-MB-231 = assay: Antiproliferative activity against human MDA-MB-231 cells assessed as reduction in cell viability after 7 days; format: functional, cell-based; conditions: MDA-MB-231, 168 h
[3] = molecular target: Histone acetyltransferase p300 (Homo sapiens, UniProt Q09472); assay: Inhibition of P300 (unknown orign) using acetyl-CoA as substrate preincubated for 30 mins followed by substrate addition measured after 1 hr by microplate reader analysis
Mus musculus [4] = assay: Toxicity in BALB/c mouse xenografted with human SW1990 cells assessed as effect on body weight at 15 mg/kg, ip administered for 28 consecutive days in presence of 45 mg/kg Olaparib; format: organism-based; conditions: in vivo, 672 h, time 28 day
SW1990 [5] = assay: Induction of apoptosis in human SW1990 cells assessed as late apoptotic cells at 4 uM after 4 days by Annexin V-FITC and propidium iodide staining based flow cytometry (reference value: 6.22%); format: functional; conditions: time 4 day
SW1990 [6] = assay: Induction of apoptosis in human SW1990 cells assessed as necrotic cells at 1 uM after 4 days in presence of 3 uM Olaparib by Annexin V-FITC and propidium iodide staining based flow cytometry (reference value: 1.89%); format: functional; conditions: time 4 day
SW1990 [7] = assay: Effect on cell cycle progression in human SW1990 cells assessed as reduction in Olaparib-induced CDK6 expression at 1 uM after 4 days in presence of Olaparib by Western blot analysis; format: functional, cell-based; conditions: time 4.0 day
SW1990 [8] = assay: Effect on cell cycle progression in human SW1990 cells assessed as reduction in Olaparib-induced CCND1 expression at 1 uM after 4 days in presence of Olaparib by Q-PCR analysis; format: functional, cell-based; conditions: time 4.0 day
SW1990 [9] = assay: Effect on cell cycle progression in human SW1990 cells assessed as reduction in Olaparib-induced PLK1 expression at 1 uM after 4 days in presence of Olaparib by Western blot analysis; format: functional, cell-based; conditions: time 4.0 day
SW1990 [10] = assay: Induction of DNA damage in human SW1990 cells assessed as increase in gammaH2AX at 4 uM incubated for 4 days by immunofluorescence assay; format: functional, cell-based; conditions: time 4.0 day
SW1990 [11] = assay: Inhibition of homologous recombinant repair in human SW1990 cells assessed as increase in […] expression at 4 uM after 4 days by Q-PCR analysis; format: functional, cell-based; conditions: time 4.0 day
SW1990 [12] = assay: Inhibition of homologous recombinant repair in human SW1990 cells assessed as increase in […] expression at 4 uM after 4 days by Western blot analysis; format: functional, cell-based; conditions: time 4.0 day
Mus musculus [13] = assay: Inhibition of homologous recombinant repair in human SW1990 cells xenografted in BALB/c mouse assessed as reduction in c-Myc expression at 45 mg/kg, ip after 4 days by immunohistochemical analysis; format: functional, organism-based; conditions: time 4.0 day
Mus musculus [14] = assay: Inhibition of homologous recombinant repair in human SW1990 cells xenografted in BALB/c mouse assessed as reduction in FOXM1 expression at 45 mg/kg, ip after 4 days by immunohistochemical analysis; format: functional, organism-based; conditions: time 4.0 day
[15] = molecular target: T1, Bromodomain-containing protein 4 (Homo sapiens, UniProt O60885); assay: Inhibition of recombinant BRD4 BD1 (unknown origin) incubated for 120 mins by TR-FRET assay
[16] = molecular target: T2, Poly [ADP-ribose] polymerase 1 (Homo sapiens, UniProt P09874); assay: Inhibition of PARP1 expression in human SW1990 cells at 1 uM after 4 days by Western blot analysis; format: cell-based; conditions: time 4.0 day
[17] = molecular target: T1, Bromodomain-containing protein 4; assay: Inhibition of BRD4 expression in human SW1990 cells at 1 uM after 4 days by Western blot analysis; format: cell-based; conditions: time 4.0 day
[18] = molecular target: T2, Poly [ADP-ribose] polymerase 1; assay: Inhibition of PARP1 expression in human SW1990 cells at 1 uM after 4 days by Q-PCR analysis; format: cell-based; conditions: time 4.0 day
Mus musculus [19] = assay: Toxicity in BALB/c mouse xenografted with human SW1990 cells assessed as lung damage at 45 mg/kg, ip administered for 28 consecutive days by H and E staining based […] microscopic analysis; format: organism-based; conditions: in vivo, 672 h, time 28 day
Mus musculus [20] = assay: Toxicity in BALB/c mouse xenografted with human SW1990 cells assessed as heart damage at 45 mg/kg, ip administered for 28 consecutive days by H and E staining based […] microscopic analysis; format: organism-based; conditions: in vivo, 672 h, time 28 day
SW1990 [21] = assay: Induction of cell cycle arrest in human SW1990 cells assessed as accumulation of cells at S phase at 1 uM incubated for 4 days by propidium iodide staining based flow cytometry (reference value: 29.32%); format: functional; conditions: time 4 day
SW1990 [22] = assay: Induction of cell cycle arrest in human SW1990 cells assessed as accumulation of cells at G0/G1 phase at 2 uM incubated for 4 days by propidium iodide staining based flow cytometry (reference value: 64.79%); format: functional; conditions: time 4 day
SW1990 [23] = assay: Effect on cell cycle progression in human SW1990 cells assessed as reduction in CDK6 expression at 1 to 2 uM after 4 days by Q-PCR analysis; format: functional, cell-based; conditions: dose 1-2 µM, time 4.0 day
SW1990 [24] = assay: Effect on cell cycle progression in human SW1990 cells assessed as reduction in PLK1 expression at 1 to 2 uM after 4 days by Q-PCR analysis; format: functional, cell-based; conditions: dose 1-2 µM, time 4.0 day
SW1990 [25] = assay: Effect on cell cycle progression in human SW1990 cells assessed as reduction in E2F2 expression at 1 to 2 uM after 4 days by Western blot analysis; format: functional, cell-based; conditions: dose 1-2 µM, time 4.0 day
SW1990 [26] = assay: Induction of DNA damage in human SW1990 cells assessed as increase in gammaH2AX at 1 to 2 uM incubated for 4 days by immunofluorescence assay; format: functional, cell-based; conditions: dose 1-2 µM, time 4.0 day
SW1990 [27] = assay: Inhibition of homologous recombinant repair in human SW1990 cells assessed as reduction in FOXM1 expression at 1 to 2 uM after 4 days by Western blot analysis; format: functional, cell-based; conditions: dose 1-2 µM, time 4.0 day
SW1990 [28] = assay: Inhibition of homologous recombinant repair in human SW1990 cells assessed as reduction in Rad51 expression at 1 to 2 uM after 4 days by Q-PCR analysis; format: functional, cell-based; conditions: dose 1-2 µM, time 4.0 day
SW1990 [29] = assay: Induction of autophagy in human SW1990 cells assessed as increase in pAMPKalpha expression at 1 to 2 uM incubated for 4 days by immunofluorescence assay; format: functional, cell-based; conditions: dose 1-2 µM, time 4.0 day
SW1990 [30] = assay: Induction of autophagy in human SW1990 cells assessed as reduction in Bcl-2 expression at 1 to 2 uM incubated for 4 days by immunofluorescence assay; format: functional, cell-based; conditions: dose 1-2 µM, time 4.0 day
SW1990 [31] = assay: Induction of autophagy in human SW1990 cells assessed as increase in Beclin1 expression at 1 to 2 uM incubated for 4 days by immunofluorescence assay; format: functional, cell-based; conditions: dose 1-2 µM, time 4.0 day
SW1990 [32] = assay: Induction of autophagy in human SW1990 cells xenografted in BALB/c mouse assessed as increase in LC3B expression at 45 mg/kg, ip after 4 days by Q-PCR analysis; format: functional, organism-based; conditions: time 4.0 day

T2 sequence (P09874 whole entry): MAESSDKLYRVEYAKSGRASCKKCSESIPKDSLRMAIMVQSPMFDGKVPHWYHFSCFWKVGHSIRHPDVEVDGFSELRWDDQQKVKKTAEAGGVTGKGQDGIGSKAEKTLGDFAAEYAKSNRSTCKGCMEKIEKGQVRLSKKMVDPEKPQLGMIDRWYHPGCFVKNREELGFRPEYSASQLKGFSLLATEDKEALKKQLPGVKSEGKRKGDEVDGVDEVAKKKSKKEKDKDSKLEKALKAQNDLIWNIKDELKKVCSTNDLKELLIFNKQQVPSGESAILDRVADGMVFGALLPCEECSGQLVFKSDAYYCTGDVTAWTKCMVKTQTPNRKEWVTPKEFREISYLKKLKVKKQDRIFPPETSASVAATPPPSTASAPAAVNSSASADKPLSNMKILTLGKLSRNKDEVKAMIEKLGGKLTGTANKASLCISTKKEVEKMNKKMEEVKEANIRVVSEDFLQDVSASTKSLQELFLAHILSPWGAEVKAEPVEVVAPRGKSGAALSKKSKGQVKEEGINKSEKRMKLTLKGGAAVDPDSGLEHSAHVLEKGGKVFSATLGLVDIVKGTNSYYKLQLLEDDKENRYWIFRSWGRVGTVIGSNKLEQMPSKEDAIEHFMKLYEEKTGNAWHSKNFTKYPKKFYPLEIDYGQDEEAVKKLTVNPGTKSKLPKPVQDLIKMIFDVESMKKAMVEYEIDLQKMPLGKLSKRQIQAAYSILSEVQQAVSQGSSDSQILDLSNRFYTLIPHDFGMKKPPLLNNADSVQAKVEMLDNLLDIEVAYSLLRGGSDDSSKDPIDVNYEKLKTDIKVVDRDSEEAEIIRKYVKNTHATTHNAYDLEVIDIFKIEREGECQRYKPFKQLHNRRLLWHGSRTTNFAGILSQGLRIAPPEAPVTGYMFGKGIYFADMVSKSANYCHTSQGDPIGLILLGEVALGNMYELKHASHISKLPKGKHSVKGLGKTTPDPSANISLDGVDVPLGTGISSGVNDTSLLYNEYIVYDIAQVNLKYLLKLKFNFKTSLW
Histone acetyltransferase p300, sequence (Q09472 whole entry): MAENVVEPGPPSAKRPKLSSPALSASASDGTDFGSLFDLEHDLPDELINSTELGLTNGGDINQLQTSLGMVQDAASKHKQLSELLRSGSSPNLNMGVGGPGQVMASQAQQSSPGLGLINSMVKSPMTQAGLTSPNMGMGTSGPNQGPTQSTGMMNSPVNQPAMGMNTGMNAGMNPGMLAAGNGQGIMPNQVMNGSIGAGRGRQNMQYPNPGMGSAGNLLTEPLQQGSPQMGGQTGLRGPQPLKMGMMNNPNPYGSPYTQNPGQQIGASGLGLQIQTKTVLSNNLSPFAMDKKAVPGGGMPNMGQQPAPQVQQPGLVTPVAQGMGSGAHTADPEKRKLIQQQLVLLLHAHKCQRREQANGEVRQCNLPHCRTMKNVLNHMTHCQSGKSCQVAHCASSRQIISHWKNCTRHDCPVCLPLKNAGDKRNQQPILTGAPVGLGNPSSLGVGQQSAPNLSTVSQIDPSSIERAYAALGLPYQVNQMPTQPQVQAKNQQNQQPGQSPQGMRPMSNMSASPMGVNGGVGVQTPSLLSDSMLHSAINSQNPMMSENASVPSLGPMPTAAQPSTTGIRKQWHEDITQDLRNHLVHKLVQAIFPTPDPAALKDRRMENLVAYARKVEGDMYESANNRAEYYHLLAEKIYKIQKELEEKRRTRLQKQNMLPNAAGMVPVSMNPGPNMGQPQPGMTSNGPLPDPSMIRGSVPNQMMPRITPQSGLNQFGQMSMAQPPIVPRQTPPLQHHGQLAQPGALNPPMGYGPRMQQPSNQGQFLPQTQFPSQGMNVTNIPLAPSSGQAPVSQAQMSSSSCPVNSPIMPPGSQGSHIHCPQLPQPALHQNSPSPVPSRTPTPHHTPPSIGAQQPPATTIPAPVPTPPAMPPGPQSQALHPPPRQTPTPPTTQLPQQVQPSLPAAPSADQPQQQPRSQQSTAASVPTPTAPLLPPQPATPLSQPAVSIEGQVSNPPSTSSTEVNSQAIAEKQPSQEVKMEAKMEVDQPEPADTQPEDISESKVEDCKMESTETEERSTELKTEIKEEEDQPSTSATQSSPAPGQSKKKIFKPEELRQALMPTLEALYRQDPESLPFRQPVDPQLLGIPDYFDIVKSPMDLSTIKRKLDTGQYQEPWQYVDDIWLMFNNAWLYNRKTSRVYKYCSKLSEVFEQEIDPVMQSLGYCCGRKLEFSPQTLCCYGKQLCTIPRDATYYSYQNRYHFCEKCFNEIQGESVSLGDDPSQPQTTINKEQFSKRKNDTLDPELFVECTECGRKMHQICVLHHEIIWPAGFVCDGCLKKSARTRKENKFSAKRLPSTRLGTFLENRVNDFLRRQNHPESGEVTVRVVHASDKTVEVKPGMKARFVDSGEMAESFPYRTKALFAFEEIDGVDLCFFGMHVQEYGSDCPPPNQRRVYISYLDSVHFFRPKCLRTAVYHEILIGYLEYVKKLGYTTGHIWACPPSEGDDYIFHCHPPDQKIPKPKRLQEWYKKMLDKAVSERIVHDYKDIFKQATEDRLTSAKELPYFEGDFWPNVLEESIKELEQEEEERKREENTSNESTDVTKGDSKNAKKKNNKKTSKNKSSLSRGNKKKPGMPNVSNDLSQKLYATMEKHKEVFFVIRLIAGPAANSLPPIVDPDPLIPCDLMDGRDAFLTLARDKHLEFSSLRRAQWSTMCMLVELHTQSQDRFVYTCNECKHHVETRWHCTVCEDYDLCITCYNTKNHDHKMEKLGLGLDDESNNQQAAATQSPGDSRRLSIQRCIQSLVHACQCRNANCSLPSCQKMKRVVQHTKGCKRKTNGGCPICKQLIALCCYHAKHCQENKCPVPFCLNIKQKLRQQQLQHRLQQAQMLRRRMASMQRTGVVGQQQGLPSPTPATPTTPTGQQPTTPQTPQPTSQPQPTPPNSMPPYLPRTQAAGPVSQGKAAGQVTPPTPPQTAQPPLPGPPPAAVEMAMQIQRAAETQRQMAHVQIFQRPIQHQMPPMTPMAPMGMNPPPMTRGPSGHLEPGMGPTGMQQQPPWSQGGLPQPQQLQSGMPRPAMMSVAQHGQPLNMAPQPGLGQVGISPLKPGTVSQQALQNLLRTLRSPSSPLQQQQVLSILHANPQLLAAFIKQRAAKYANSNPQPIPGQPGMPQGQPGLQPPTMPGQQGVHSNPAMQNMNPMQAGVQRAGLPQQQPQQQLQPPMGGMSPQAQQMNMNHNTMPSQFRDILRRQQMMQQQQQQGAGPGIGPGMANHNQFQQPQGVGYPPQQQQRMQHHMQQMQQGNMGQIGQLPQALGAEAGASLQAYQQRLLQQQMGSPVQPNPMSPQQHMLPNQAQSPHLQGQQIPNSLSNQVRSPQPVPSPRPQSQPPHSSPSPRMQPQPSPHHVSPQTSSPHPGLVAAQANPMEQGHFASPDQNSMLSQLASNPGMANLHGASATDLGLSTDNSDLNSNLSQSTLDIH

SMILES: Cc1sc2c(c1C)C(c1ccc(Cl)cc1)=N[C@@H](CC(=O)OC(C)(C)C)c1nnc(C)n1-2
- Activity (SW1990 [1]): Active
- IC50 (CFPAC-1): 1560 nM
- IC50 (CAPAN-1): 2440 nM
- IC50 (SW1990 [2]): 3740 nM
- IC50 (MDA-MB-231): 640 nM
- IC50 [3]: 19400 nM
- Activity (Mus musculus [4]): Non-Toxic
- Activity (SW1990 [5]): 25.5%
- Activity (SW1990 [6]): 5.53%
- Activity (SW1990 [7]): Active
- Activity (SW1990 [8]): Active
- Activity (SW1990 [9]): Active
- Activity (SW1990 [10]): Active
- inhibition (SW1990 [11]): Active
- inhibition (SW1990 [12]): Active

SMILES: CC[C@@H]1C(=O)N(C)c2cnc(N(C)c3ccc(-c4nc5c(C(N)=O)cccc5[nH]4)cc3OC)nc2N1C1CCCC1
- IC50 (CFPAC-1): 1160 nM
- IC50 (CAPAN-1): 1560 nM
- IC50 (SW1990 [2]): 980 nM
- inhibition (Mus musculus [13]): Active
- IC50 (MDA-MB-231): 340 nM
- inhibition (Mus musculus [14]): Active
- IC50 [15]: 75 nM
- IC50 [3]: 59400 nM
- inhibition [16]: Active
- inhibition [17]: Active
- inhibition [18]: Active
- Activity (Mus musculus [19]): Non-Toxic
- Activity (Mus musculus [20]): Non-Toxic
- Activity (SW1990 [21]): 14.74%
- Activity (SW1990 [22]): 77.56%
- Activity (SW1990 [23]): Active
- Activity (SW1990 [24]): Active
- Activity (SW1990 [25]): Active
- Activity (SW1990 [26]): Active
- inhibition (SW1990 [27]): Active
- inhibition (SW1990 [28]): Active
- Activity (SW1990 [29]): Active
- Activity (SW1990 [30]): Active
- Activity (SW1990 [31]): Active
- Activity (SW1990 [32]): Active
